Converted amounts (≈) assume the structure as drawn. The source made the active and inactive calls. The rule behind the calls is not given here.
Legend:
[1] = tested on: Human immunodeficiency virus; experiment: Inhibition of HIV reverse transcriptase at 33 ug/mL by scintillation counting
H9 = experiment: Cytotoxicity against human H9 cells; assay type: cell-based
[2] = Therapeutic index, ratio of IC50 for human H9 cells to EC50 for HIV; assay type: cell-based; conditions: for therapeutic index: H9; for Activity: human, h9
[3] = tested on: Human immunodeficiency virus; experiment: Antiviral activity against HIV infected in human H9 cells assessed as viral replication; assay type: functional, organism-based; conditions: for EC50: Human immunodeficiency virus 1, H9

C[C@@]12CCC[C@@](C)(C=O)[C@H]1CC[C@@]13C[C@H](CC[C@H]12)[C@@H](C(=O)O)C3
inhibition [1]: 14%

CC(=O)OC[C@]1(O)C[C@@]23CC[C@H]4[C@@](C)(CCC[C@@]4(C)C(=O)O)[C@@H]2CC[C@H]1C3
IC50 (H9): 65 µg/mL (≈ 172 µM)
therapeutic index [2]: 0.8
EC50 [3]: 85 µg/mL (≈ 225 µM)

CC1(C)CCC[C@]2(C)[C@@H]1CC[C@@]13C[C@H](CC[C@H]12)[C@H](C(=O)O)C3
IC50 (H9): 32 µg/mL (≈ 105 µM)
therapeutic index [2]: 1.3
EC50 [3]: 24 µg/mL (≈ 78.8 µM)

C=C1C[C@@]23CC[C@H]4[C@@](C)(CCC[C@@]4(C)C(=O)O)[C@@H]2CC[C@@H]1C3
inhibition [1]: 1%

Cc1cn([C@H]2C[C@H](N=[N+]=[N-])[C@@H](CO)O2)c(=O)[nH]c1=O [ZIDOVUDINE]
therapeutic index [2]: 50000
EC50 [3]: 0.01 µg/mL (≈ 0.0374 µM)

COC(=O)[C@H]1C[C@@]23CC[C@H]4[C@@](C)(CCC[C@@]4(C)C=O)[C@@H]2CC[C@H]1C3
IC50 (H9): 20 µg/mL (≈ 60.2 µM)
therapeutic index [2]: 4
EC50 [3]: 5 µg/mL (≈ 15 µM)

CC1(C)CCC[C@]2(C)[C@@H]1CC[C@@]13C[C@H](CC[C@H]12)[C@@H](C(=O)O)C3
IC50 (H9): 40 µg/mL (≈ 131 µM)
Activity [2]: Not Active
Activity [3]: inactive

CC(=O)OC[C@]1(C)CCC[C@]2(C)[C@@H]1CC[C@@]13C[C@H](CC[C@H]12)[C@@H](C(=O)O)C3 [ANNOGLABASIN B]
IC50 (H9): 40 µg/mL (≈ 110 µM)
Activity [2]: Not Active
Activity [3]: inactive

COC(=O)[C@]1(OC(C)=O)C[C@@]23CC[C@H]4[C@@](C)(CCC[C@@]4(C)C=O)[C@@H]2CC[C@H]1C3 [ANNOGLABASIN A]
IC50 (H9): 15 µg/mL (≈ 38.4 µM)
therapeutic index [2]: 1.5
EC50 [3]: 10 µg/mL (≈ 25.6 µM)

C[C@@]12CCC[C@@](C)(C(=O)O)[C@H]1CC[C@@]13C[C@H](CC[C@H]12)[C@@](O)(CO)C3
inhibition [1]: 46%

C=C1C[C@@]23CC[C@@H]4[C@](C)(CO)CCC[C@@]4(C)[C@@H]2CC[C@H]1C3
inhibition [1]: 7%

Source: ChEMBL document CHEMBL1158673, “Bioactive kaurane diterpenoids from Annona glabra” (J Nat Prod, 1998)
